One may read the IC50 as the midpoint of a concentration-inhibition curve.

For 20 molecules, IC50 results are on record in US10329270B2, “Heteroaryl compounds as BTK inhibitors and uses thereof” (Merck Patent GmbH, priority 2013, dated 2019).

One experiment relates to PBMC. Kind of experiment: Assay B: Time Dependent PMBC IC50 Assay. It is filed as cell-based. The protocol: Assay B: Time Dependent PMBC IC50 Assay
Compounds described by embodiments of the present invention were assayed using a time dependent PMBC assay. The data from the same is recorded in Table 2 within the column labeled: “Time Dependent PBMC Assay IC50.” These IC50 values are reported in ranges wherein: I<1 uM and II>1 uM.

The target in another experiment is T1, BTK in human whole blood (Homo sapiens, UniProt Q06187).
T1 construct: endogenous in cells; host or cells: human whole blood
The experiment can be described thus: Assay C: Time Dependent Human Whole Blood IC50 Assay. The experiment is classed as cell-based. Conditions: read-out: Assay C (Time Dependent Human Whole Blood BTK Enzyme Assay IC50). How it is done:
Assay C: Time Dependent Human Whole Blood IC50 Assay
Compounds described by embodiments of the present invention were assayed using a human whole blood assay. The data from the same is recorded in Table 2 within the column labeled: “Time Dependent Human Whole Blood BTK Enzyme Assay IC50”.

The next experiment concerns the target T2, full-length human BTK (Homo sapiens, UniProt Q06187).
T2 construct: 2.5× stocks of full-length human BTK (08-080); purchased CarnaBio USA, Inc., Natick, Mass; 08-080
Kind of experiment: Assay A: BTK IC50 Enzyme Assay (microfluidic off-chip mobility shift kinase assay). It is filed as biochemical. The following applies: full-length human BTK, kinKDR peptide substrate, incubated 90 min at 27 C; read-out: Assay A (Time Dependent BTK Enzyme Assay IC50). In short, it runs like this: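 Off-chip microfluidic mobility shift assay with full-length human BTK; phosphorylated and unphosphorylated peptide substrate were separated by charge/mass on a LabChip 3000.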

T2 sequence (Q06187 whole entry): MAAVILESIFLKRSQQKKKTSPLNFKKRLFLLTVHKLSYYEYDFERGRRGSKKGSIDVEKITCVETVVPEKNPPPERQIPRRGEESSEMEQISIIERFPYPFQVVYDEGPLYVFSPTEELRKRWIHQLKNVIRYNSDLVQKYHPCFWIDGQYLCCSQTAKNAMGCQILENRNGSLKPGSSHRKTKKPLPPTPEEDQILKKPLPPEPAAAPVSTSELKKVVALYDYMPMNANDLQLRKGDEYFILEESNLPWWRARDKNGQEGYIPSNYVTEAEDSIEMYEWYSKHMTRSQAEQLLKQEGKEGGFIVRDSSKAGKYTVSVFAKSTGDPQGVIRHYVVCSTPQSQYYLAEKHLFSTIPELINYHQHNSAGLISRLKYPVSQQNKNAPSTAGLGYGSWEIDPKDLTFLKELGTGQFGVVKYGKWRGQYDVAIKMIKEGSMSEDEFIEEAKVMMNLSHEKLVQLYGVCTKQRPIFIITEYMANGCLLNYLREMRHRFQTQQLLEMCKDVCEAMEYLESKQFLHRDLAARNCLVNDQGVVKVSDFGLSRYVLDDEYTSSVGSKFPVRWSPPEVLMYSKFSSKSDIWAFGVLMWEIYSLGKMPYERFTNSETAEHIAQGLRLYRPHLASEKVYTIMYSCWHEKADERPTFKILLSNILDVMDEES
T1 sequence (Q06187 whole entry): as above

Consider `C=CC(=O)N[C@H]1CCN(c2nc(Nc3ccc(N4CCC(F)(F)CC4)cc3)c(C(N)=O)cc2F)C1` [Compound 180, 6-((S)-3-Acryloylamino-pyrrolidin-1-yl)-2-[4-(4,4-difluoro-piperidin-1-yl)-phenylamino]-5-fluoro-nicotinamide], for which the IC50 is < 100 nM in the experiment on PBMC, 100 to 1000 nM at BTK in human whole blood and < 100 nM at full-length human BTK.

On to `C=CC(=O)N[C@H]1CCN(c2ncc(C(N)=O)c(Nc3ccc(C(=O)NC(C)(C)C)cc3)n2)C1` [Compound 139, (S)-2-(3-acrylamidopyrrolidin-1-yl)-4-((4-(tert-butylcarbamoyl)phenyl)amino)pyrimidine-5-carboxamide], for which the IC50 in the experiment on PBMC, at BTK in human whole blood and on full-length human BTK was < 100 nM throughout.

Regarding `C=CC(=O)N[C@H]1CCN(c2ccc(C(N)=O)c(Nc3ccc(OC)cc3)n2)C1` [Compound 45, 6-((S)-3-Acryloylamino-pyrrolidin-1-yl)-2-(4-methoxy-phenylamino)-nicotinamide], the figures for the IC50 on BTK in human whole blood and at full-length human BTK were 100 to 1000 nM and < 100 nM, respectively.

Consider `C=CC(=O)N1C[C@@H]2C[C@H]1CN2c1ccc(C(N)=O)c(Nc2ccc(CCN3CCCC3)cc2)n1` [Compound 9, 6-((1S,4S)-5-Acryloyl-2,5-diaza-bicyclo[2.2.1]hept-2-yl)-2-[4-(2-pyrrolidin-1-yl-ethyl)-phenylamino]-nicotinamide], for which the 50% inhibitory concentration (IC50) in the experiment on PBMC, at BTK in human whole blood and at full-length human BTK was < 100 nM in each case.

`C=CC(=O)N1C2C=C(c3ccc(C(N)=O)c(Oc4ccc(Oc5ccccc5)cc4)n3)CC1CC2` (stereo not shown) [Compound 65, 6-(8-Acryloyl-8-aza-bicyclo[3.2.1]oct-2-en-3-yl)-2-(4-phenoxy-phenoxy)-nicotinamide]: the IC50 with PBMC is < 100 nM; on BTK in human whole blood, 100 to 1000 nM; at full-length human BTK, < 100 nM.

Turning to `C=CC(=O)N[C@H]1CCN(c2ccc(C(N)=O)c(Nc3ccc(C(=O)N4CCN(C)CC4)cc3)n2)C1` [Compound 11, (S)-6-(3-acrylamidopyrrolidin-1-yl)-2-((4-(4-methylpiperazine-1 carbonyl)phenyl)amino)nicotinamide], the IC50 in the experiment on PBMC was < 100 nM; on BTK in human whole blood it was 100 to 1000 nM; on full-length human BTK it was < 100 nM.

For the molecule `C=CC(=O)N[C@H]1CCN(c2ccc(C(N)=O)c(Nc3ccc(N4C[C@@H](C)O[C@@H](C)C4)nc3)n2)C1` [Compound 37, 6-((S)-3-Acryloylamino-pyrrolidin-1-yl)-2-[6-(cis-2,6-dimethyl-morpholin-4-yl)-pyridin-3-ylamino]-nicotinamide], the values for the half-inhibitory concentration (IC50) with PBMC, at BTK in human whole blood and at full-length human BTK were < 100 nM, 100 to 1000 nM and < 100 nM, respectively.

As to `N#CN[C@@H]1CCCN(c2ccc(C(N)=O)c(Nc3ccc(C(=O)N4CCOCC4)cc3)n2)C1` [Compound 227, (R)-3-Cyanoamino-6′-[4-(morpholine-4-carbonyl)-phenylamino]-3,4,5,6-tetrahydro-2H-[1,2′]bipyridinyl-5′-carboxylic acid amide], the values for the IC50 in the experiment on PBMC and on full-length human BTK were > 5000 nM and 100 to 1000 nM, respectively.

As for `C=CC(=O)N1CCC=C(c2ccc(C(N)=O)c(Nc3ccc(CCN4CCCC4)cc3)n2)C1` [Compound 44, 1′-Acryloyl-6-[4-(2-pyrrolidin-1-yl-ethyl)-phenylamino]-1′,2′,5′,6′-tetrahydro-[2,3′]bipyridinyl-5-carboxylic acid amide], the concentration for half-maximal inhibition (IC50) is 100 to 1000 nM in the experiment with PBMC and < 100 nM at full-length human BTK.

Consider `C=CC(=O)N1CCC2(CCN(c3ccc(C(N)=O)c(Nc4ccc(CCN5CCCC5)cc4)n3)C2)C1` (stereo not shown) [Compound 20, 6-(7-Acryloyl-2,7-diaza-spiro[4.4]non-2-yl)-2-[4-(2-pyrrolidin-1-yl-ethyl)-phenylamino]-nicotinamide], for which the IC50 in the experiment with PBMC and at full-length human BTK was < 100 nM throughout.

For `C=CC(=O)N[C@H]1CCN(c2ccc(C(N)=O)c(Nc3ccc(N4CCOCC4)nc3)n2)C1` [Compound 38, 6-((S)-3-Acryloylamino-pyrrolidin-1-yl)-2-(6-morpholin-4-yl-pyridin-3-ylamino)-nicotinamide], the values for the half-maximal inhibitory concentration (IC50) in the experiment with PBMC and at full-length human BTK were 100 to 1000 nM and < 100 nM, respectively.

As for `C=CC(=O)N1CCC(c2ccc(C(N)=O)c(Nc3ccc(C(=O)N4CCCC(NC(=O)CCOCCOCCOCCOCCNC(=O)CCCC[C@@H]5SCC6NC(=O)NC65)C4)cc3)n2)CC1` (stereo partly drawn) [Compound 191, 6-(1-acryloylpiperidin-4-yl)-2-((4-(3-(17-oxo-21-((4S)-2-oxohexahydro-1H-thieno[3,4-d]imidazol-4-yl)-4,7,10,13-tetraoxa-16-azahenicosanamido)piperidine-1-carbonyl)phenyl)amino)nicotinamide], the IC50 in the experiment with PBMC is > 5000 nM; at full-length human BTK, < 100 nM.

`C=CC(=O)N1CCC(c2ccc(C(N)=O)c(Nc3ccc(C(=O)N4CCN(C(=O)CCCCNC(=O)CCOCCOCCOCCOCCNC(=O)CCCCC5SCC6NC(=O)NC65)CC4)cc3)n2)CC1` (stereo not shown) [Compound 177]: the concentration for half-maximal inhibition (IC50) with PBMC is > 5000 nM; at full-length human BTK it was < 100 nM.

Turning to `C=CC(=O)N[C@H]1CCN(c2ccc(C(N)=O)c(Nc3ccc(C(=O)N4CC(C)OC(C)C4)cc3)n2)C1` (stereo partly drawn) [Compound 40, 6-((S)-3-Acryloylamino-pyrrolidin-1-yl)-2-[4-(2,6-dimethyl-morpholine-4-carbonyl)-phenylamino]-nicotinamide], the concentration for half-maximal inhibition (IC50) is 100 to 1000 nM in the experiment with PBMC and < 100 nM on full-length human BTK.

For the molecule `C=CC(=O)N1CCC(c2ccc(C(N)=O)c(Nc3ccc(C(=O)N4CCCCC4)cc3)n2)CC1` [Compound 22, 1′-Acryloyl-6-[4-(piperidine-1-carbonyl)-phenylamino]-1′,2′,3′,4′,5′,6′-hexahydro-[2,4′]bipyridinyl-5-carboxylic acid amide], the IC50 with PBMC and on full-length human BTK was < 100 nM throughout.

Take `C=CC(=O)N1CCC(c2cnc(C(N)=O)c(NC(C)=O)c2)CC1` [Compound 134]: the values for the half-maximal inhibitory concentration (IC50) in the experiment with PBMC and at full-length human BTK were 100 to 1000 nM and < 100 nM, respectively.

In the case of `C=CC(=O)N[C@@H]1CN(c2ccc(C(N)=O)c(Nc3ccc(CCN4CCCC4)cc3)n2)CC12CC2` [Compound 7, 6-((S)-7-Acryloylamino-5-aza-spiro[2.4]hept-5-yl)-2-[4-(2-pyrrolidin-1-yl-ethyl)-phenylamino]-nicotinamide], the concentration for half-maximal inhibition (IC50) in the experiment on PBMC and on full-length human BTK was < 100 nM in each case.

On to `C=CC(=O)N[C@H]1CCN(c2ccc(C(N)=O)c(Nc3ccc(N4CCCCC4)cc3)n2)C1` [Compound 31, 6-((S)-3-Acryloylamino-pyrrolidin-1-yl)-2-(4-piperidin-1-yl-phenylamino)-nicotinamide], for which the half-maximal inhibitory concentration (IC50) is 100 to 1000 nM in the experiment with PBMC and < 100 nM at full-length human BTK.

Regarding `C=CC(=O)N1CCN(c2ccc(C(N)=O)c(Nc3ccc(CCN4CCCC4)cc3)n2)CC1` [Compound 12, 6-(4-Acryloyl-piperazin-1-yl)-2-[4-(2-pyrrolidin-1-yl-ethyl)-phenylamino]-nicotinamide], the IC50 with PBMC and at full-length human BTK was < 100 nM each time.

In the case of `C=CC(=O)N1CCC(c2ccc(C(N)=O)c(Nc3ccc(OC4CCN(C)CC4)cc3)n2)CC1` [Compound 10, 1′-Acryloyl-6-[4-(1-methyl-piperidin-4-yloxy)-phenylamino]-1′,2′,3′,4′,5′,6′-hexahydro-[2,4′]bipyridinyl-5-carboxylic acid amide], the half-inhibitory concentration (IC50) in the experiment with PBMC and at full-length human BTK was < 100 nM each time.
